Where two headings read alike, the source gives them in different places.
How the values were obtained:
[1] = test system: p21 induction in HCT116 cells; assay: p21 induction in HCT116 cells; type: cell-based; settings: Homo sapiens, HCT-116, 24 h, read-out: P21_EC50
Method in brief: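 EC50 from non-linear curve fit of p21 immunofluorescence (800 nm), with GAPDH (700 nm) read alongside. DMSO and a reference WRN inhibitor served as low and high controls. Cells (2,000/well) got 11 compound concentrations in duplicate for 24 h at 37 °C.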

[2] = target: WRN (BV08), human Werner helicase (Uniprot Q14191, amino acids 517-1235 with L1074F point mutation) (Homo sapiens (Human), UniProt Q14191, L1074F); assay: WRN (BV08) ADP-Glo assay; type: biochemical; settings: class symbols A-E, read-out: ADP-Glo_hWRN_IC50
[3] = HCT116 cells, 24 h compound incubation

Sequence of WRN (BV08), human Werner helicase (Uniprot Q14191, amino acids 517-1235 with L1074F point mutation) (Q14191 other isoform, or with tags, fused parts or gaps L1074F (already in the parent)): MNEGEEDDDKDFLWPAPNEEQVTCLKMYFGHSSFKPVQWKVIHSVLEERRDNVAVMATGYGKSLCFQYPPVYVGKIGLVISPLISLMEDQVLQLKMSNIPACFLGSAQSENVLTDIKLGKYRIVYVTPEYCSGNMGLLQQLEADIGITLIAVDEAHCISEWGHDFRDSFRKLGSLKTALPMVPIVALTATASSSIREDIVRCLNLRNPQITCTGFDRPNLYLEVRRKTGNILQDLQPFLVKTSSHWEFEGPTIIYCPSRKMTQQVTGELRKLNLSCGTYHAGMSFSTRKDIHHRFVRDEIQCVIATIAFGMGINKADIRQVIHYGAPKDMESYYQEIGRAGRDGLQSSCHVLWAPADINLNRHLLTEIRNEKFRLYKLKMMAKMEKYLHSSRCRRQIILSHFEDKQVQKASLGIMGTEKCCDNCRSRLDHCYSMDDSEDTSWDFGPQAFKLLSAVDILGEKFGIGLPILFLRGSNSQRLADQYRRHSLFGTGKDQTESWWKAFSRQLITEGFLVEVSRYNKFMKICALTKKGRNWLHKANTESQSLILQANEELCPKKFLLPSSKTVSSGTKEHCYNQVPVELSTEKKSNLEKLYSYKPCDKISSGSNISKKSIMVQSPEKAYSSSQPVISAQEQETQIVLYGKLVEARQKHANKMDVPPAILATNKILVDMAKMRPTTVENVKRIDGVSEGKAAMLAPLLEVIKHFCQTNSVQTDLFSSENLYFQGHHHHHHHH

| SMILES | EC50 [1, 3] [nM] | IC50 [2] [nM] | EC50 [1] [nM] |
| --- | --- | --- | --- |
| CCc1c(N2CCN(C(=O)c3ncnc(C)c3O)CC2)c(=O)c2nc(-c3ccnc(OC)c3)cnc2n1CC(=O)Nc1ccc(C(F)(F)F)cc1Cl [I-7, N-(2-chloro-4-(trifluoromethyl)phenyl)-2-(6-ethyl-7-(4-(5-hydroxy-6-methylpyrimidine-4-carbonyl)piperazin-1-yl)-2-(2-methoxypyridin-4-yl)-8-oxopyrido[2,3-b]pyrazin-5(8H)-yl)acetamide] | > 5000 | 5 to 50 | – |
| CCc1c(N2CCN(C(=O)c3ncnc(C)c3O)CC2)c(=O)c2nc(OC)c(C)nc2n1CC(=O)Nc1ccc(C(F)(F)F)cc1Cl [I-12, N-(2-chloro-4-(trifluoromethyl)phenyl)-2-(6-ethyl-7-(4-(5-hydroxy-6-methylpyrimidine-4-carbonyl)piperazin-1-yl)-2-methoxy-3-methyl-8-oxopyrido[2,3-b]pyrazin-5(8H)-yl)acetamide] | > 5000 | 5 to 50 | – |
| CCc1c(N2CCN(C(=O)c3ncnc(C)c3O)CC2)c(=O)c2nc(C(F)F)cnc2n1CC(=O)Nc1ccc(C(F)(F)F)cc1Cl [I-13, N-(2-chloro-4-(trifluoromethyl)phenyl)-2-(2-(difluoromethyl)-6-ethyl-7-(4-(5-hydroxy-6-methylpyrimidine-4-carbonyl)piperazin-1-yl)-8-oxopyrido[2,3-b]pyrazin-5(8H)-yl)acetamide] | > 5000 | 50 to 100 | – |
| CCc1c(N2CCN(C(=O)c3ncnc(C)c3O)CC2)c(=O)c2nc(N(C)C)cnc2n1CC(=O)Nc1ccc(C(F)(F)F)cc1Cl [I-14, N-(2-chloro-4-(trifluoromethyl)phenyl)-2-(2-(dimethylamino)-6-ethyl-7-(4-(5-hydroxy-6-methylpyrimidine-4-carbonyl)piperazin-1-yl)-8-oxopyrido[2,3-b]pyrazin-5(8H)-yl)acetamide] | – | 5 to 50 | 500 to 2000 |
| C=Cc1nc2c(=O)c(N3CCN(C(=O)c4ncnc(C)c4O)CC3)c(CC)n(CC(=O)Nc3ccc(C(F)(F)F)cc3Cl)c2nc1C [I-18, N-(2-chloro-4-(trifluoromethyl)phenyl)-2-(6-ethyl-7-(4-(5-hydroxy-6-methylpyrimidine-4-carbonyl)piperazin-1-yl)-3-methyl-8-oxo-2-vinylpyrido[2,3-b]pyrazin-5(8H)-yl)acetamide] | – | 5 to 50 | 500 to 2000 |
| CCc1c(N2CCN(C(=O)c3ncnc(C)c3O)CC2)c(=O)c2nc(Cl)cnc2n1CC(=O)Nc1ccc(C(F)(F)F)cc1Cl [I-19, N-(2-chloro-4-(trifluoromethyl)phenyl)-2-(2-chloro-6-ethyl-7-(4-(5-hydroxy-6-methylpyrimidine-4-carbonyl)piperazin-1-yl)-8-oxopyrido[2,3-b]pyrazin-5(8H)-yl)acetamide] | > 5000 | 5 to 50 | – |
| CCc1c(N2CCN(C(=O)c3ncnc(C)c3O)CC2)c(=O)c2nc(NC)cnc2n1CC(=O)Nc1ccc(C(F)(F)F)cc1Cl [I-20, N-(2-chloro-4-(trifluoromethyl)phenyl)-2-(6-ethyl-7-(4-(5-hydroxy-6-methylpyrimidine-4-carbonyl)piperazin-1-yl)-2-(methylamino)-8-oxopyrido[2,3-b]pyrazin-5(8H)-yl)acetamide] | > 5000 | 5 to 50 | – |
| CCc1c(N2CCN(C(=O)c3ncnc(C)c3O)CC2)c(=O)c2nc(C(C)(C)O)c(C)nc2n1CC(=O)Nc1ccc(C(F)(F)F)cc1Cl [I-22, N-(2-chloro-4-(trifluoromethyl)phenyl)-2-(6-ethyl-7-(4-(5-hydroxy-6-methylpyrimidine-4-carbonyl)piperazin-1-yl)-2-(2-hydroxypropan-2-yl)-3-methyl-8-oxopyrido[2,3-b]pyrazin-5(8H)-yl)acetamide] | > 5000 | 50 to 100 | – |
| C=C(C)c1nc2c(=O)c(N3CCN(C(=O)c4ncnc(C)c4O)CC3)c(CC)n(CC(=O)Nc3ccc(C(F)(F)F)cc3Cl)c2nc1C [I-23, N-(2-chloro-4-(trifluoromethyl)phenyl)-2-(6-ethyl-7-(4-(5-hydroxy-6-methylpyrimidine-4-carbonyl)piperazin-1-yl)-3-methyl-8-oxo-2-(prop-1-en-2-yl)pyrido[2,3-b]pyrazin-5(8H)-yl)acetamide] | – | 5 to 50 | 500 to 2000 |
| CCc1c(N2CCN(C(=O)c3ncnc(C)c3O)CC2)c(=O)c2nc(O)cnc2n1CC(=O)Nc1ccc(C(F)(F)F)cc1Cl [I-24, N-(2-chloro-4-(trifluoromethyl)phenyl)-2-(6-ethyl-2-hydroxy-7-(4-(5-hydroxy-6-methylpyrimidine-4-carbonyl)piperazin-1-yl)-8-oxopyrido[2,3-b]pyrazin-5(8H)-yl)acetamide] | > 5000 | 5 to 50 | – |
| CCc1c(N2CCN(C(=O)c3ncnc(C)c3O)CC2)c(=O)c2nc(CO)cnc2n1CC(=O)Nc1ccc(C(F)(F)F)cc1Cl [I-25, N-(2-chloro-4-(trifluoromethyl)phenyl)-2-(6-ethyl-7-(4-(5-hydroxy-6-methylpyrimidine-4-carbonyl)piperazin-1-yl)-2-(hydroxymethyl)-8-oxopyrido[2,3-b]pyrazin-5(8H)-yl)acetamide] | > 5000 | 50 to 100 | – |

Now from value to compound, other results behind:

| EC50 [1, 3] [nM] | IC50 [2] [nM] | SMILES | EC50 [1] [nM] |
| --- | --- | --- | --- |
| > 5000 | 5 to 50 | CCc1c(N2CCN(C(=O)c3ccnc(OC)c3O)CC2)c(=O)c2ncc(C)nc2n1CC(=O)Nc1ccc(C(F)(F)F)cc1Cl [I-4, N-(2-chloro-4-(trifluoromethyl)phenyl)-2-(6-ethyl-7-(4-(3-hydroxy-2-methoxyisonicotinoyl)piperazin-1-yl)-3-methyl-8-oxopyrido[2,3-b]pyrazin-5(8H)-yl)acetamide] | – |
| > 5000 | 100 to 500 | CCc1c(N2CCN(C(C)=O)CC2)c(=O)c2ncc(C)nc2n1CC(=O)Nc1ccc(C(F)(F)F)cc1Cl [I-5, 2-(7-(4-acetylpiperazin-1-yl)-6-ethyl-3-methyl-8-oxopyrido[2,3-b]pyrazin-5(8H)-yl)-N-(2-chloro-4-(trifluoromethyl)phenyl)acetamide] | – |
| 2000 to 5000 | 5 to 50 | CCc1c(N2CCN(C(=O)c3c(O)ccnc3OC)CC2)c(=O)c2ncc(C)nc2n1CC(=O)Nc1ccc(C(F)(F)F)cc1Cl [I-6, N-(2-chloro-4-(trifluoromethyl)phenyl)-2-(6-ethyl-7-(4-(4-hydroxy-2-methoxynicotinoyl)piperazin-1-yl)-3-methyl-8-oxopyrido[2,3-b]pyrazin-5(8H)-yl)acetamide] | – |
| 500 to 2000 | 5 to 50 | C/C=C/c1cnc2c(n1)c(=O)c(N1CCN(C(=O)c3ncnc(C)c3O)CC1)c(CC)n2CC(=O)Nc1ccc(C(F)(F)F)cc1Cl [I-8, (E)-N-(2-chloro-4-(trifluoromethyl)phenyl)-2-(6-ethyl-7-(4-(5-hydroxy-6-methylpyrimidine-4-carbonyl)piperazin-1-yl)-8-oxo-2-(prop-1-en-1-yl)pyrido[2,3-b]pyrazin-5(8H)-yl)acetamide] | – |
| 500 to 2000 | 5 to 50 | C=C(C)c1cnc2c(n1)c(=O)c(N1CCN(C(=O)c3ncnc(C)c3O)CC1)c(CC)n2CC(=O)Nc1ccc(C(F)(F)F)cc1Cl [I-9, N-(2-chloro-4-(trifluoromethyl)phenyl)-2-(6-ethyl-7-(4-(5-hydroxy-6-methylpyrimidine-4-carbonyl)piperazin-1-yl)-8-oxo-2-(prop-1-en-2-yl)pyrido[2,3-b]pyrazin-5(8H)-yl)acetamide] | – |
| 2000 to 5000 | 5 to 50 | CCc1c(N2CCN(C(=O)c3ncnc(C)c3O)CC2)c(=O)c2nc(C3CC3)cnc2n1CC(=O)Nc1ccc(C(F)(F)F)cc1Cl [I-10, N-(2-chloro-4-(trifluoromethyl)phenyl)-2-(2-cyclopropyl-6-ethyl-7-(4-(5-hydroxy-6-methylpyrimidine-4-carbonyl)piperazin-1-yl)-8-oxopyrido[2,3-b]pyrazin-5(8H)-yl)acetamide] | – |
| 2000 to 5000 | 5 to 50 | CC#Cc1cnc2c(n1)c(=O)c(N1CCN(C(=O)c3ncnc(C)c3O)CC1)c(CC)n2CC(=O)Nc1ccc(C(F)(F)F)cc1Cl [I-11, N-(2-chloro-4-(trifluoromethyl)phenyl)-2-(6-ethyl-7-(4-(5-hydroxy-6-methylpyrimidine-4-carbonyl)piperazin-1-yl)-8-oxo-2-(prop-1-yn-1-yl)pyrido[2,3-b]pyrazin-5(8H)-yl)acetamide] | – |
| < 500 | 5 to 50 | CCO/C=C/c1cnc2c(n1)c(=O)c(N1CCN(C(=O)c3ncnc(C)c3O)CC1)c(CC)n2CC(=O)Nc1ccc(C(F)(F)F)cc1Cl [I-15, (E)-N-(2-chloro-4-(trifluoromethyl)phenyl)-2-(2-(2-ethoxyvinyl)-6-ethyl-7-(4-(5-hydroxy-6-methylpyrimidine-4-carbonyl)piperazin-1-yl)-8-oxopyrido[2,3-b]pyrazin-5(8H)-yl)acetamide] | – |
| 500 to 2000 | 5 to 50 | CCc1c(N2CCN(C(=O)c3ncnc(C)c3O)CC2)c(=O)c2nc(C3CC3)c(C)nc2n1CC(=O)Nc1ccc(C(F)(F)F)cc1Cl [I-17, N-(2-chloro-4-(trifluoromethyl)phenyl)-2-(2-cyclopropyl-6-ethyl-7-(4-(5-hydroxy-6-methylpyrimidine-4-carbonyl)piperazin-1-yl)-3-methyl-8-oxopyrido[2,3-b]pyrazin-5(8H)-yl)acetamide] | – |
| 500 to 2000 | 5 to 50 | C/C=C/c1nc2c(=O)c(N3CCN(C(=O)c4ncnc(C)c4O)CC3)c(CC)n(CC(=O)Nc3ccc(C(F)(F)F)cc3Cl)c2nc1C [I-21, (E)N-(2-chloro-4-(trifluoromethyl)phenyl)-2-(6-ethyl-7-(4-(5-hydroxy-6-methylpyrimidine-4-carbonyl)piperazin-1-yl)-3-methyl-8-oxo-2-(prop-1-en-1-yl)pyrido[2,3-b]pyrazin-5(8H)-yl)acetamide] | – |
